From patent publication US20110182888A1, “Administration of an Inhibitor of HDAC, an Inhibitor of HER-2, and a Selective Estrogen Receptor Modulator” (priority 2008, published 2011)

Experiments:
[1] = tested on: erbB2-overexpressing SKBR3, BT474, and MDA-MB-453 cells; experiment: Apoptotic-ELISA, western blots on PARP cleavage and caspase-3, -8, -9 activation, flow cytometry in erbB2-overexpressing cells; format: cell-based, human; details: SNDX-275 5 μM; SKBR3, BT474, MDA-MB-453 cells
Text: (§1) SNDX-275 had little effect on apoptosis induction and cell cycle progression in basal breast cancer MDA-MB-468, MDA-MB-231, and BT20 cells. […] Moreover, elevated expression of erbB3 via transfection with erbB3-containing expression vector abrogated SNDX-275-induced inactivation of the downstream signaling, apoptosis, and cell cycle arrest, whereas knockdown of erbB3 and/or erbB2 expression with specific shRNAs enhanced the efficacy of SNDX-275-induced inactivation of the downstream signaling, apoptosis, and cell cycle arrest in SKBR3 and BT474 cells.

[2] = tested on: SKBR3 and BT474 cells; experiment: erbB3 overexpression or erbB3/erbB2 shRNA knockdown and SNDX-275 response; format: cell-based, human
Text: as §1

[3] = tested on: human breast cancer cells; details: through induction of TGFβ type II receptor or TRAIL expression, or degradation of DNMT1; cited from earlier work
[4] = tested on: erbB2-overexpressing breast cancer cells; experiment: cell proliferation (MTS) assays, erbB2-overexpressing vs basal breast cancer cells; format: cell-based, human; details: MTS assay; erbB2-overexpressing breast cancer cells compared to basal cells
Text: as §1

[5] = tested on: P-erbB3, P-erbB2, P-MAPK, P-Akt, erbB3 and erbB2 in SKBR3, BT474 and MDA-MB-453 cells; experiment: erbB receptor and downstream signaling levels upon SNDX-275 treatment; format: cell-based, human
Text: as §1

[6] = tested on: basal breast cancer MDA-MB-468, MDA-MB-231, and BT20 cells; experiment: apoptosis induction and cell cycle progression in basal breast cancer cells; format: cell-based, human; details: MDA-MB-468, MDA-MB-231, BT20 cells
Text: as §1

In the case of Nc1ccccc1NC(=O)c1ccc(CNC(=O)OCc2cccnc2)cc1 [SNDX-275, N-(2-aminophenyl)-4-(N-(pyridin-3-ylmethoxycarbonyl)aminomethyl)benzamide], the “apoptosis and cell cycle arrest” value [1] is reported as “induced apoptosis and cell cycle G1 arrest”, the “efficacy of SNDX-275-induced inactivation of downstream signaling, apoptosis, and cell cycle arrest with erbB3 and/or erbB2 knockdown” value ([2]; specific shRNAs, SKBR3 and BT474 cells) is reported as “enhanced” and the “SNDX-275-induced inactivation of downstream signaling, apoptosis, and cell cycle arrest with elevated erbB3 expression” value ([2]; transfection with erbB3-containing expression vector) is reported as “abrogated”. The proliferation and apoptosis [3] was “inhibit proliferation and induce apoptosis”, the growth inhibition [4] was “much stronger growth inhibition” and the erbB2 receptor [5] was “lesser reduction”. For the same compound, the erbB3 protein [5] was “rapid decrease”, the “levels of P-erbB3, P-erbB2, P-MAPK, and P-Akt” value [5] was “significantly decreased” and the “apoptosis induction and cell cycle progression” value [6] was “little effect”.
